One test addresses T1, HECW2 (Homo sapiens, UniProt Q9P2P5).
T1 construct: HECT-domains of multiple ligases auto-ubiquitinate in in vitro assays containing both UBA1 and UbcH5b
Kind of test: in vitro HECT-domain auto-ubiquitination assay, HECW2. It counts as biochemical.

A further test addresses T2, NEDD4L (Homo sapiens, UniProt Q96PU5).
T2 construct: HECT-domains of multiple ligases auto-ubiquitinate in in vitro assays containing both UBA1 and UbcH5b
T2 sequence (Q96PU5 640-974 limits assumed): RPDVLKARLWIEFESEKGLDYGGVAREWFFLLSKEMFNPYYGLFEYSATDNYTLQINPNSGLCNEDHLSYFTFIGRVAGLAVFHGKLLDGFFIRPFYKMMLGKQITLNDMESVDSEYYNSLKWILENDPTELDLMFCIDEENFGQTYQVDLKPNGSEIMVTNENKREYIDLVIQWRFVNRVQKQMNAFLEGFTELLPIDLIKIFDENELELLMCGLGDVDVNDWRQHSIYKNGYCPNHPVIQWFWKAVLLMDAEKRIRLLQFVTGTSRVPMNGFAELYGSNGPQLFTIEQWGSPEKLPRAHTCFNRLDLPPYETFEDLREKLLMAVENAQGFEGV
Kind of test: in vitro HECT-domain auto-ubiquitination assay, NEDD4L. It counts as biochemical.

For the next test, the target named is T3, WWP1 (Homo sapiens, UniProt Q9H0M0).
T3 construct: HECT-domains of multiple ligases auto-ubiquitinate in in vitro assays containing both UBA1 and UbcH5b
T3 sequence (Q9H0M0 588-922 limits assumed, species assumed): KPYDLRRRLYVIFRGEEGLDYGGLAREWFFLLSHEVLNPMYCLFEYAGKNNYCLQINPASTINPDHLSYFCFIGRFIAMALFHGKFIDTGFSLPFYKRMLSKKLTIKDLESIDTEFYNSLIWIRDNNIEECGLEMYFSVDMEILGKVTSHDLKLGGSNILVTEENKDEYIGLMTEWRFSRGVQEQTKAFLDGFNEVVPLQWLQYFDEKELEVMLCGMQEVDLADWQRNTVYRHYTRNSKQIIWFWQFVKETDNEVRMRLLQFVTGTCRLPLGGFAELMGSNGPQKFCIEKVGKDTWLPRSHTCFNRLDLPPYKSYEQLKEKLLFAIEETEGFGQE
Kind of test: in vitro HECT-domain auto-ubiquitination assay, WWP1. It is filed as biochemical.

In another test the test system is Ls174T cells. Kind of test: Crystal violet growth assay of control and partially HUWE1-depleted Ls174T cells (IC50 shift). It is filed as cell-based. As to conditions: Homo sapiens, 120 h, crystal violet after five days. As for the experimental part: Partial shRNA-mediated depletion of HUWE1 led to a moderate, but highly significant reduction in IC50 value for growth inhibition by BI8622, arguing that growth inhibition is an on-target effect of the inhibitor (Supplementary Fig S6). […] Incubation with either compound retarded passage of Ls174T cells through all phases of the cell cycle, with the effect being strongest for G1. In contrast to colon carcinoma cells, HUWE1 is not required for proliferation of embryonic stem (ES) cells and deletion of HUWE1 instead delays the decrease of N-MYC levels that occurs upon removal of leukemia inhibitory factor (LIF) from the medium (Zhao et al, [2008]). […] Furthermore, inhibition of HUWE1 in crypt cultures of normal intestinal epithelial cells had no effect on expression of MYC target genes (Fig4G).
HCT116, HEK293T, HeLa, HT29, ES, Phoenix, and U2OS cells were cultivated in DMEM (Sigma). Ls174T and SW480 cells were grown in RPMI 1640 (Sigma). All media were supplemented with 10% FBS (Biochrom AG) and 1% penicillin/streptomycin (Sigma). Medium for ES cells contained 15% FBS, 1% NEAA (Gibco), 6 μg/ml LIF, and 0.05 mM β-mercaptoethanol (Sigma). […] Quantification of crystal violet staining was performed by extracting dye with 10% acetic acid and measuring absorbance at 590 nm. IC50 values were calculated using the four parameter logistic equation model. […]
C. Quantification of the staining. […]

A word on the IC50: it is the concentration at which inhibition is half-maximal.

Read-outs that look alike come from different tables or passages of the source.

T1 sequence (Q9P2P5 1237-1572 limits assumed, species assumed): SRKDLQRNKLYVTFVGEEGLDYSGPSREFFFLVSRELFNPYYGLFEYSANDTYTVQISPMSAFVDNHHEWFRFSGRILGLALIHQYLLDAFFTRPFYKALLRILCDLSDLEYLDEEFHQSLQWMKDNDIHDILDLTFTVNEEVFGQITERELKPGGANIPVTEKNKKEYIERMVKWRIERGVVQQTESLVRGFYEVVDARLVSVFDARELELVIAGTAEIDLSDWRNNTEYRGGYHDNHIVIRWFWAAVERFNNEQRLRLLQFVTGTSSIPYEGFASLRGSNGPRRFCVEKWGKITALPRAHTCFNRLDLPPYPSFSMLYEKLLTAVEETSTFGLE

For `Cc1c(C(=O)Nc2ccc(CN)cc2)ncnc1N1CCC(C#N)(c2ccccc2)CC1` [BI8622], the half-maximal inhibitory concentration (IC50) was > 50 µM against HECW2; > 50 µM against NEDD4L; > 50 µM against WWP1; 8.1 µM in the test on Ls174T cells (control Ls174T cells, read-out: IC50 growth inhibition, ctr cells); 6.5 µM in the test with Ls174T cells (partially HUWE1-depleted Ls174T cells, read-out: IC50 growth inhibition, shHUWE1 cells).
As for `NCc1cccc(CNc2ncnc3c(N4CCN(Cc5ccccc5)CC4)ncnc23)c1` [BI8626], the half-maximal inhibitory concentration (IC50) against HECW2, against NEDD4L and at WWP1 was > 50 µM in each case.

(Values after PMC4287973, “Tumor cell-specific inhibition of MYC function using small molecule inhibitors of the HUWE1 ubiquitin ligase” (EMBO Molecular Medicine, 2014).)
